{
  "source": "patent US11084795B2",
  "about": "“CFTR regulators and methods of use thereof” (The Regents of the University of California, priority 2015, dated 2021)",
  "key": {"[1]": {"biological_target": "T1, ΔF508-CFTR (Homo sapiens, UniProt P13569, DEL508-508)", "T1 construct": "expressed in transfected cells; host or cells: Fischer rat thyroid (FRT) cells", "T1 sequence (P13569 with tags, fused parts or gaps DEL508-508)": "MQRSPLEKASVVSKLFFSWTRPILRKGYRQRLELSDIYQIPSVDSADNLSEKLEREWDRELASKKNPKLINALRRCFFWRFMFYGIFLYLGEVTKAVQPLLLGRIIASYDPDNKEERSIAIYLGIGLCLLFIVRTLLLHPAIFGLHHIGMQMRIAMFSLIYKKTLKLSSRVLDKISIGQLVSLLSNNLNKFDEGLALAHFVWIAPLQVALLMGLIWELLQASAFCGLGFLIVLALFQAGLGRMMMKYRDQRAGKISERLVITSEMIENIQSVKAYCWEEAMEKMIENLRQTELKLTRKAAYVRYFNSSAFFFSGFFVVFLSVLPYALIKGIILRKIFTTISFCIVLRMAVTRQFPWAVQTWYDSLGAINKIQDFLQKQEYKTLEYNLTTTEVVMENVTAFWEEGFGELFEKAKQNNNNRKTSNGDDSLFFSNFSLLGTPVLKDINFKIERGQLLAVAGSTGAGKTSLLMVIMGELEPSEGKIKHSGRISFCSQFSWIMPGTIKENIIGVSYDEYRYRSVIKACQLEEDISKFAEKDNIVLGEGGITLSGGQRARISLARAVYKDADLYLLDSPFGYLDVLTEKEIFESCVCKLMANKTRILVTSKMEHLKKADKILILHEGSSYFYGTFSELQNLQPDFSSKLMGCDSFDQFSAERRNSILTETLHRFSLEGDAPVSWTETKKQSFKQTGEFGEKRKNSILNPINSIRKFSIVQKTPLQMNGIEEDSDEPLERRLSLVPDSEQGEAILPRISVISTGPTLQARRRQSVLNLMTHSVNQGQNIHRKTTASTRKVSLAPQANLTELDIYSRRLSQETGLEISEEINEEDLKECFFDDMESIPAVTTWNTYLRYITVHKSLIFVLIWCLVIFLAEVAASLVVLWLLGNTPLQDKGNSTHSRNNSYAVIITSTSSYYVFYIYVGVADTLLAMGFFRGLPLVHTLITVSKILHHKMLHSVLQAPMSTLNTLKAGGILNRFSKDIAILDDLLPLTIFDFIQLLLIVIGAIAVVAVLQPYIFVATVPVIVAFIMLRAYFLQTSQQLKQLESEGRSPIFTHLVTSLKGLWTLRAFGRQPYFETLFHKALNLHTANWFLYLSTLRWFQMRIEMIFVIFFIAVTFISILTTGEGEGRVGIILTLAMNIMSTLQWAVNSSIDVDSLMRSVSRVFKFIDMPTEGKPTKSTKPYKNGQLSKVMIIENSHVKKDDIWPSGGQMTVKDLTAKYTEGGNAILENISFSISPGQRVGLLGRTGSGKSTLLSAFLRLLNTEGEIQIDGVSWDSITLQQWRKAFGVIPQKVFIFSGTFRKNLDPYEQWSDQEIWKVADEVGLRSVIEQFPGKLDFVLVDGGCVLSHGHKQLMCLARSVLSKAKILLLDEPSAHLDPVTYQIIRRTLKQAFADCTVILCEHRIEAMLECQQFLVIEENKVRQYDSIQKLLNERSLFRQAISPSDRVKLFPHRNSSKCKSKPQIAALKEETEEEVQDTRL", "experiment": "Short-circuit current in FRT cells expressing ΔF508-CFTR corrected with VX-809", "type": "cell-based", "conditions": "after overnight incubation with a corrector", "description": "FIGS. 9A-9E. Characterization of CFTR activation by CFTRact-J027. Short-circuit current measured in FRT cells expressing human wild-type CFTR (FIG. 9A) and ΔF508-CFTR (FIG. 9C) showing responses to indicated concentrations of forskolin (fsk), CFTRact-J027, and VX-770. The ΔF508-CFTR-expressing FRT cells were corrected with 3 μM VX-809 at 37° C. for 24 h before measurement. CFTRinh-172 (Inh-172, 10 μM) was added where indicated. FIG. 9B. CFTRact-J027 concentration-dependent activation of wild-type CFTR Cl^− current (S.E.; n=3 cultures). FIG. 9D. Short-circuit current in mouse colon showing responses to indicated concentrations of forskolin (fsk), CFTRact-J027, and CFTRinh-172. FIG. 9E. Assay of cAMP concentration in FRT cells measured following 10-min incubation with indicated concentrations of forskolin and 5 μM CFTRact-J027. Positive controls included forskolin (100 nM and 20 μM), and forskolin plus 3-isobutyl-1-methylxanthine (IBMX, 100 μM) (mean±SE, n=4-8)."}, "[2]": {"biological_target": "T2, human wildtype CFTR (Homo sapiens, UniProt P13569)", "T2 sequence (P13569 whole entry)": "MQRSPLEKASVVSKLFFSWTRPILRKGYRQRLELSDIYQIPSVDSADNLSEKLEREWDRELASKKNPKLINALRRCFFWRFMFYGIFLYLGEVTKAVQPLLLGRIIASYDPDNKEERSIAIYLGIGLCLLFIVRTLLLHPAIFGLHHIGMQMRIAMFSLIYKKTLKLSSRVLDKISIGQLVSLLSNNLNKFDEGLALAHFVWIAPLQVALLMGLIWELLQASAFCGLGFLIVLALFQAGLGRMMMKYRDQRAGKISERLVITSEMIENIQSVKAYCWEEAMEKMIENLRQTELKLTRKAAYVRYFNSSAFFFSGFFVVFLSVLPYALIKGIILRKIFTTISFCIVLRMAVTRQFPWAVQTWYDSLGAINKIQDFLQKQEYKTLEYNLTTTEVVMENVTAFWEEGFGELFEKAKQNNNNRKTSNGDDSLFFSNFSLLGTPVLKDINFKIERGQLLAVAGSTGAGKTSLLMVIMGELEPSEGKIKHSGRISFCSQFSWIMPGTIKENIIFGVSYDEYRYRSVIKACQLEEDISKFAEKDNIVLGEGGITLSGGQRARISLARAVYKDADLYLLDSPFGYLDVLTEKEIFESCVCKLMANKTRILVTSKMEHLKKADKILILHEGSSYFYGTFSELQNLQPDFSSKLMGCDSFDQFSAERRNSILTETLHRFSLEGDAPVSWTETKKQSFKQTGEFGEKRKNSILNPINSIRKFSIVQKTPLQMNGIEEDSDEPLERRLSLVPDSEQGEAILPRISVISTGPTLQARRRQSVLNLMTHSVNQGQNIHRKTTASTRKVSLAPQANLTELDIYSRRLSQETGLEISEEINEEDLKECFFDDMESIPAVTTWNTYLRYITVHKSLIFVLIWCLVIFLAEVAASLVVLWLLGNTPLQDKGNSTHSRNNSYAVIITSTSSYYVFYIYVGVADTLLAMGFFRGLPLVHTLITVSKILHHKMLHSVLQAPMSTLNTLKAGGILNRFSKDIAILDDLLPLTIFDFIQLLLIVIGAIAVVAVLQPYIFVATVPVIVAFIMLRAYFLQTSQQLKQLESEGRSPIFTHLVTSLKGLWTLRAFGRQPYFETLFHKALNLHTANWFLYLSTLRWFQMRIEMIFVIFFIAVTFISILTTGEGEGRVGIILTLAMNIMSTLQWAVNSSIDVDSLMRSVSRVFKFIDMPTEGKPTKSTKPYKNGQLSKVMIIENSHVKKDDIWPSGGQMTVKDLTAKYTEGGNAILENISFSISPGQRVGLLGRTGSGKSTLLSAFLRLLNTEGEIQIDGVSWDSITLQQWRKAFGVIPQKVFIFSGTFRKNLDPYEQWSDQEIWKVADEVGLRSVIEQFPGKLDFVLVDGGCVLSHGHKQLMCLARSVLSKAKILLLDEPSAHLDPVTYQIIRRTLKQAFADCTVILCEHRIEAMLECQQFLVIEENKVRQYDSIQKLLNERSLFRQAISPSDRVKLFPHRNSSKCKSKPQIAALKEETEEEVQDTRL", "experiment": "Patch-clamp (whole-cell and inside-out) in FRT cells expressing human wildtype CFTR", "type": "cell-based", "parameters": "expressed in transfected cells", "excerpt": "The pipette (intracellular) solution contained (in mM): 120 CsCl, 10 TEA-Cl, 0.5 EGTA, 1 MgCl2, 10 Cs-HEPES, 40 mannitol, 1 ATP (7.4). For inside-out patch-clamp experiments the pipette solution contained (in mM): 150 N-methyl-D-glucamine chloride (NMDG-Cl), 3 CaCl2, 2 MgCl2, 10 Na-Hepes (pH 7.3). […] Pipette electrical resistance for both whole-cell and inside-out experiments was 3-5 MΩ. The protocol for stimulation consisted of 600-ms voltage steps from −100 to +100 mV in 20 mV increments starting from a holding potential of −60 mV. The interval between steps was 4 s. Membrane currents were filtered at 1 kHz and digitized at 5 kHz. Data were analyzed using the Igor software (Wavemetrics, Portland, Oreg.) with custom software kindly provided by Dr. Oscar Moran."}, "[3]": {"system": "FRT cells", "experiment": "Alamar Blue cytotoxicity assay in FRT cells", "type": "cell-based, rat"}, "[4]": {"system": "enteroids generated from normal human duodenum and jejunum", "experiment": "Swelling measurements in human enteroids", "type": "cell-based", "conditions": "pretreatment 10 min, with 0.1 or 0.2 μM forskolin", "description": "Tissues from human subjects were obtained under approval of the Johns Hopkins University School of Medicine Institutional Review Board (protocol NA_00038329). Duodenal and jejunal biopsy specimens were obtained from adults during routine endoscopy at Johns Hopkins Hospital. Crypt isolation, enteroid propagation and culture were as described (16). For swelling measurements enteroids were seeded in 35-mm dishes with bottom coverglass with 1.5 mL media. On the day of the experiment the media was replaced with 3 mL Advanced DMEM/F12 and enteroids were incubated with 1 mM calcein greenacetoxymethyl ester for 1 h at 37° C. to label cytoplasm. Relative enteroid volume following addition of specified concentrations of forskolin was measured using a laser scanning confocal microscope (Fluoview FV10i-LIV; Olympus) at 37° C., 5% CO2, and 95% relative humidity. In some studies CFTRact-J027 was added 10 min prior to forskolin. Images were acquired every 10 min and analyzed with MetaMorph version 7.7 software (Olympus) to quantify enteroid areas."}, "[5]": {"system": "whole-gut transit", "experiment": "Whole-gut transit time in mice", "type": "in vivo, mouse", "description": "Whole-gut transit time was determined using an orally administered marker (200 μL, 5% Evans Blue, 5% gum Arabic) and measuring the time of its appearance in stool. Mice were administered loperamide and CFTRact-J027 (10 mg/kg) or vehicle intraperitoneally at zero time. For ex vivo contractility measurements, mice were euthanized by avertin overdose (200 mg/kg, 2,2,2-tribromethanol, Sigma-Aldrich) and ileum and colon segments of ˜2 cm length were isolated and washed with Krebs-Henseleit buffer. The ends of the intestinal segments were tied, connected to a force transducer (Biopac Systems, Goleta, Calif., USA) and tissues were transferred to an organ chamber (Biopac Systems) containing Krebs-Henseleit buffer at 37° C. aerated with 95% O2, 5% CO2. Ileum and colon were stabilized for 60 min with resting tensions of 0.5 and 0.2 g respectively, and solutions were changed every 15 min. Effects of CFTRact-J027 on baseline and loperamide-suppressed isometric intestinal contractions were recorded.\nIn vivo intestinal transit and ex vivo intestinal contractility. Whole-gut transit time was determined using an orally administered marker (200 μL, 5% Evans Blue, 5% gum Arabic) and measuring the time of its appearance in stool. […] Effects of CFTRact-J027 on baseline and loperamide-suppressed isometric intestinal contractions were recorded."}, "[6]": {"biological_target": "T2, human wildtype CFTR", "experiment": "Short-circuit current (Isc) in FRT cells expressing human wild-type CFTR"}},
  "note": "“And” between values parts separate entries of the source, which are not always exact repeats. Identical values can stand only once. “Also recorded” adds a separate entry of the source.",
  "data": [
    {"compound": "Nc1ccc([N+](=O)[O-])cc1-c1nc2ccccc2n(Cc2ccccc2)c1=O", "note": "[CFTRact-J027, 3-(2-amino-5-nitrophenyl)-1-benzylquinoxalin-2(1H)-one]", "values": [
      {"measurement": "potentiation of ΔF508-CFTR", "setting": "[1]", "result": "substantially less potent than ivacaftor; also recorded: only a weak potentiator"},
      {"measurement": "increase of CFTR activity, whole-cell recording", "setting": "[2]; 1 μM after 150 nM forskolin", "result": "more than four-fold"},
      {"measurement": "CFTR activity, inside-out patch", "setting": "[2]; 1 μM after submaximal ATP and catalytic subunit of PKA", "result": "strongly increased CFTR activity"},
      {"measurement": "cytotoxicity (Alamar Blue)", "setting": "[3]; 20 μM", "result": "did not show cytotoxicity"},
      {"measurement": "in vitro cytotoxicity", "setting": "[3]; 25 μM", "result": "did not show significant in vitro cytotoxicity"},
      {"measurement": "non-cytotoxic concentration relative to EC50 for CFTR activation", "setting": "[3]; 25 μM", "result": "> 100", "unit": "fold"},
      {"measurement": "in vitro cytotoxicity", "setting": "[3]; up to 100 μM, 1 or 24 h", "result": "no appreciable in vitro cytotoxicity"},
      {"measurement": "enteroid swelling response as % of that produced by maximal (5 μM) forskolin", "setting": "[4]", "result": "approximately 50%"},
      {"measurement": "whole-gut transit time in cystic fibrosis mice", "setting": "[5]; cystic fibrosis mice", "result": "no effect on whole-gut transit time"},
      {"measurement": "whole-gut transit time", "setting": "[5]; loperamide-treated wild-type mice, 10 mg/kg ip", "result": "normalized"},
      {"measurement": "CFTR activation at 3 μM", "setting": "[6]; 3 μM", "result": "nearly full activation"},
      {"measurement": "EC50", "setting": "[6]; EC50 for CFTR activation, FRT cells, wild-type CFTR, short-circuit current", "result": "~200 nM and 200 nM"},
      {"measurement": "extent of CFTR activation (Isc)", "setting": "[6]; forskolin produced little or no further increase in current", "result": "fully activated CFTR"}
    ]}
  ]
}
